Experimental data from US20230416329A1, “A PEPTIDE WITH DISULFIDE BONDS AND INHIBITORY ACTIVITY AGAINST SERINE PROTEASES, DERIVED HYBRID PEPTIDES THEREOF, AND USES THEREOF” (INSTITUTE OF MATERIA MEDICA , CHINESE ACADEMY OF MEDICAL …, priority 2020, published 2023).

Assays:
[1] = molecular target: chymotrypsin (Bos taurus, UniProt P00766); assay: in vitro; details: for Remaining peak area (%)/chymotrypsin: 0 h
Summary of the method: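 RP-HPLC peak area tracked intact peptide after 37 °C digestion with chymotrypsin (0.05 μg/μL solution, 5 min preincubation). Samples were withdrawn at 1.5-60.0 min and stopped with 10% TFA.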

[2] = molecular target: T1, trypsin (Bos taurus, UniProt P00760); assay: in vitro
T1 sequence (P00760 24-246): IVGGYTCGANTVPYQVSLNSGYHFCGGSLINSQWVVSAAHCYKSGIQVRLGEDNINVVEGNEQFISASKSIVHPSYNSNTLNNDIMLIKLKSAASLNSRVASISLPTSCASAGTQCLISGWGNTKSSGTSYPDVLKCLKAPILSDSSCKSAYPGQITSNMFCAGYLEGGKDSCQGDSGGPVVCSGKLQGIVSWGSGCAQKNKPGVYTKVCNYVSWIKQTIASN
Summary of the method: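 Remaining RP-HPLC peak area tracks undigested peptide over time. Samples were quenched with 10% TFA at time points between 1.5 and 60 min during 37 °C digestion. Trypsin was added from a 0.05 μg/μL solution after 5 min of thermal equilibration.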

[3] = molecular target: elastase (Sus scrofa, UniProt P00772); assay: in vitro; details: for remaining at 0.025 h, 60 μM / remaining at 0.05 h, 60 μM / remaining at 0.075 h, 60 μM / remaining at 0.1 h, 60 μM / remaining at 0.15 h, 60 μM / remaining at 0.25 h, 60 μM / remaining at 0.5 h, 60 μM / remaining at 1 h, 60 μM: pH 8, Remaining peak area (%)/elastase
Description: FIG. 19. […] At different time point, 25 μL aliquots was taken out, and 10% (v/v) TFA was added to terminate the reaction.
(§1) Mix by centrifugation at 8000 rpm for 30 seconds.
Arrange a certain volume of 0.5 μg/μL elastase solution in another sterile EP. Incubate the EP tubes containing peptides and enzymes at 37° C. for 5 min, and then add 4.5 μL of elastase solution to each EP tube containing peptides and mix well. Start timing and remove 25 μL of reaction solution at 1.5, 3.0, 4.5, 6.0, 9.0, 15.0, 30.0, and 60.0 min later, respectively. Add 3.75 μL of 10% TFA to terminate the reaction and mix well by centrifugation at 8000 rpm for 30 seconds.
Referring to the experimental method in Example 5, in vitro stability of salmon Calcitonin analogs with oral administration activity to the enzymatic hydrolysis by trypsin, chymotrypsin and elastase were performed.
Referring to the experimental method in Example 5, in vitro stability of IL-17A inhibitory peptides towards the enzymatic hydrolysis by trypsin, chymotrypsin and elastase were performed.

[4] = Stability of GLP-1 and its analogues in human serum; details: 25% (v/v) human serum; for Remaining peak area (%)/human serum: 0.0 h, peptide 0.03 mM, 37° C.; for remaining at 0.5 h, 0.03 mM / remaining at 2 h, 0.03 mM / remaining at 4 h, 0.03 mM / remaining at 8 h, 0.03 mM / remaining at 12 h, 0.03 mM: human, pH 7
[5] = molecular target: DPP-IV (Homo sapiens, UniProt P27487); assay: Tolerance of GLP-1 and its analogues to DPP-IV (RP-HPLC remaining peak area); assay type: in vitro ADME; details: peptide 25 μM, DPP-IV 0.5 ng/μL, 37° C.; for Remaining peak area (%)/DPP-IV: 0.0 h; for remaining at 0.5 h, 25 μM / remaining at 2 h, 25 μM / remaining at 4 h, 25 μM / remaining at 8 h, 25 μM / remaining at 12 h, 25 μM: isolated DPP-IV enzyme in buffer, pH 8
Description: as §1
(2) Arrange a certain volume of 0.005 μg/μL DPP-IV solution in another sterile EP.

[6] = isolated enzyme chymotrypsin, pH 7.8, Remaining peak area (%)/chymotrypsin

Chain of elastase (P00772 27-266): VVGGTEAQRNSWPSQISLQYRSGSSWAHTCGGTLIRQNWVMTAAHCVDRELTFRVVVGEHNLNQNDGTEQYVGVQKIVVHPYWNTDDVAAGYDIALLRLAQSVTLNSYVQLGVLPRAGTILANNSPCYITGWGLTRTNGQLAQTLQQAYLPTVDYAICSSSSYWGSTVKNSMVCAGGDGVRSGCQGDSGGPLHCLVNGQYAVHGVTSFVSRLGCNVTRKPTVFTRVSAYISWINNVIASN
Chain of DPP-IV (P27487 whole entry, species assumed): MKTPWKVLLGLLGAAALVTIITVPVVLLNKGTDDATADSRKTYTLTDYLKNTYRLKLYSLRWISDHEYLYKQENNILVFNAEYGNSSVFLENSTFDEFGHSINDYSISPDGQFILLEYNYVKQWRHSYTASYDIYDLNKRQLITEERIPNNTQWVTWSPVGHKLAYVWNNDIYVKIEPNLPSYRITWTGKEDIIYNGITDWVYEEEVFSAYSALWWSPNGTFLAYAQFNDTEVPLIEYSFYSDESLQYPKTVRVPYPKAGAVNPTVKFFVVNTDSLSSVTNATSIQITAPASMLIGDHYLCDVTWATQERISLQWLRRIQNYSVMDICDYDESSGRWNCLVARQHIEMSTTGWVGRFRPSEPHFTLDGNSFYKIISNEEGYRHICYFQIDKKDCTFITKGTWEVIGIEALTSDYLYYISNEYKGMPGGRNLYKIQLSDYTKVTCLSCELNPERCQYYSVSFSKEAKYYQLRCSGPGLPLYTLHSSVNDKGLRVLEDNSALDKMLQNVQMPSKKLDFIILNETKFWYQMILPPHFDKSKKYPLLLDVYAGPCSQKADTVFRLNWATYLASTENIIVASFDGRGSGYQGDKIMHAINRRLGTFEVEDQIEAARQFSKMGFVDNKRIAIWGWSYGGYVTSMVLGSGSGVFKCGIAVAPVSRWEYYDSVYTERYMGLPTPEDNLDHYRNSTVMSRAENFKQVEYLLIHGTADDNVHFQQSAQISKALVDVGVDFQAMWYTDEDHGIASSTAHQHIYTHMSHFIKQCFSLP

Compound	stability towards chymotrypsin hydrolysis (in words) [1]	Remaining peak area (%)/chymotrypsin [1] [%]	remaining at 0.025 h, 60 μM [1, 6] [%]	remaining at 0.05 h, 60 μM [1, 6] [%]	remaining at 0.1 h, 60 μM [1, 6] [%]	remaining at 0.15 h, 60 μM [1, 6] [%]	stability towards elastase hydrolysis (in words) [3]	Remaining peak area (%)/human serum [4] [%]	serum stability (in words) [4]	remaining at 0.5 h, 0.03 mM [4] [%]	remaining at 2 h, 0.03 mM [4] [%]	remaining at 4 h, 0.03 mM [4] [%]	remaining at 8 h, 0.03 mM [4] [%]	remaining at 12 h, 0.03 mM [4] [%]	Remaining peak area (%)/DPP-IV [5] [%]	remaining at 0.5 h, 25 μM [5] [%]	remaining at 2 h, 25 μM [5] [%]	remaining at 4 h, 25 μM [5] [%]	remaining at 8 h, 25 μM [5] [%]	remaining at 12 h, 25 μM [5] [%]	other results
CC[C@H](C)[C@H](N)C(=O)N[C@@H](Cc1c[nH]cn1)C(=O)N[C@H](C(=O)N[C@H](C(=O)N[C@H](C(=O)N1CCC[C@H]1C(=O)N[C@@H](C)C(=O)N[C@@H](CC(=O)O)C(=O)N[C@@H](CC(C)C)C(=O)N[C@@H](Cc1c[nH]c2ccccc12)C(=O)N[C@@H](CC(=O)O)C(=O)N[C@@H](Cc1c[nH]c2ccccc12)C(=O)N[C@H](C(=O)N[C@@H](CC(N)=O)C(=O)O)[C@@H](C)CC)[C@@H](C)CC)[C@@H](C)O)C(C)C [17A, reference compound]	unstable towards chymotrypsin and elastase	100.0 ± 0.0	68.8 ± 5.5	59.2 ± 6.3	41.4 ± 4.5	24.3 ± 1.2	unstable towards chymotrypsin and elastase	–	–	–	–	–	–	–	–	–	–	–	–	–	remaining at 0.075 h, 60 μM [1, 6]: 46.2 ± 5.2%; stability towards trypsin hydrolysis (in words) [2]: very stable towards trypsin
CC[C@H](C)[C@H](NC(=O)CNC(=O)[C@@H]1CCCN1C(=O)[C@@H](NC(=O)CNC(=O)[C@H](CO)NC(=O)CNC(=O)[C@@H](NC(=O)[C@H](CC(N)=O)NC(=O)[C@@H](NC(=O)[C@H](CCCNC(=N)N)NC(=O)[C@@H]1CCCN1C(=O)[C@H](Cc1ccc(O)cc1)NC(=O)[C@@H](NC(=O)[C@H](CCC(N)=O)NC(=O)[C@H](CC(C)C)NC(=O)[C@H](CCCCN)NC(=O)[C@H](Cc1c[nH]cn1)NC(=O)[C@H](C)NC(=O)[C@H](CCC(=O)O)NC(=O)[C@H](CCC(N)=O)NC(=O)[C@H](CO)NC(=O)[C@H](CC(C)C)NC(=O)[C@H](CCCCN)NC(=O)CNC(=O)[C@H](CC(C)C)NC(=O)CNC(=O)[C@@H]1CSSC[C@H](N)C(=O)N[C@@H](CO)C(=O)N[C@@H](CC(N)=O)C(=O)N[C@@H](CC(C)C)C(=O)N[C@@H](CO)C(=O)N[C@@H]([C@@H](C)O)C(=O)N1)[C@@H](C)O)[C@@H](C)O)[C@@H](C)O)[C@@H](C)O)C(=O)N[C@H]1CSSC[C@@H](C(=O)N[C@@H](CCC(N)=O)C(=O)O)NC(=O)[C@H]([C@@H](C)CC)NC(=O)[C@@H]2CCCN2C(=O)[C@@H]2CCCN2C(=O)[C@H]([C@@H](C)CC)NC(=O)[C@H](CO)NC(=O)[C@H](C)NC(=O)[C@H]([C@@H](C)O)NC1=O [Cal-EC]	certain tolerance to chymotrypsin	100.0 ± 0.0	95.4	31.3	29.3 ± 1.4	27.8 ± 0.2	resistant to the corresponding protease degradation	–	–	–	–	–	–	–	–	–	–	–	–	–	remaining at 0.25 h, 60 μM [1, 6]: 22.3%; remaining at 0.5 h, 60 μM [1, 6]: 21.4%; remaining at 1 h, 60 μM [1, 6]: 19.3%
CC[C@H](C)[C@H](NC(=O)[C@H](Cc1ccccc1)NC(=O)[C@H](CCC(=O)O)NC(=O)[C@H](CCCCN)NC(=O)[C@H](C)NC(=O)[C@H](C)NC(=O)[C@H](CCC(N)=O)NC(=O)CNC(=O)[C@H](CCC(=O)O)NC(=O)[C@H](CC(C)C)NC(=O)[C@H](Cc1ccc(O)cc1)NC(=O)[C@H](CO)NC(=O)[C@H](CO)NC(=O)[C@@H](NC(=O)[C@H](CC(=O)O)NC(=O)[C@H](CO)NC(=O)[C@@H](NC(=O)[C@H](Cc1ccccc1)NC(=O)[C@@H](NC(=O)CNC(=O)[C@H](CCC(=O)O)NC(=O)[C@H](C)NC(=O)[C@H](Cc1c[nH]cn1)NC(=O)CNC(=O)CNC(=O)[C@@H](NC(=O)[C@@H]1CCCN1C(=O)[C@@H](NC(=O)CN)[C@@H](C)CC)[C@@H](C)CC)[C@@H](C)O)[C@@H](C)O)C(C)C)C(=O)N[C@@H](C)C(=O)N[C@@H](Cc1c[nH]c2ccccc12)C(=O)N[C@@H](CC(C)C)C(=O)N[C@H](C(=O)N[C@@H](CCCCN)C(=O)NCC(=O)N[C@@H](CCCNC(=N)N)C(=O)NCC(=O)NCC(=O)N[C@@H](CCCCN)C(=O)NCC(=O)N[C@@H](CC(C)C)C(=O)N[C@H]1CSSC[C@@H](C(=O)N[C@@H](Cc2ccc(O)cc2)C(=O)O)NC(=O)[C@H](CCC(N)=O)NC(=O)[C@@H]2CCCN2C(=O)[C@@H]2CCCN2C(=O)[C@H]([C@@H](C)CC)NC(=O)[C@H](CO)NC(=O)[C@H](C)NC(=O)[C@H]([C@@H](C)O)NC1=O)C(C)C [D-GLP-1-EC1]	–	–	–	–	–	–	–	100.0 ± 0.0	more stable in serum	73.7 ± 3.7	63.5 ± 4.8	46.6 ± 6.4	42.4 ± 3.5	27.4 ± 0.3	100.0 ± 0.0	82.5 ± 0.6	81.2 ± 3.9	84 ± 2.2	82.5 ± 1.6	83.5 ± 0.5	remaining at 0.025 h, 60 μM ([3]; isolated enzyme elastase): 73.1 ± 5%; remaining at 0.05 h, 60 μM ([3]; isolated enzyme elastase): 73.8 ± 2.8%; remaining at 0.075 h, 60 μM ([3]; isolated enzyme elastase): 70.4 ± 2%; remaining at 0.1 h, 60 μM ([3]; isolated enzyme elastase): 68.6 ± 2.4%; remaining at 0.15 h, 60 μM ([3]; isolated enzyme elastase): 66.9 ± 3.9%; remaining at 0.25 h, 60 μM ([3]; isolated enzyme elastase): 62.1 ± 4.3%; remaining at 0.5 h, 60 μM ([3]; isolated enzyme elastase): 58.4 ± 4.6%; remaining at 1 h, 60 μM ([3]; isolated enzyme elastase): 44.5 ± 0.9%
CC[C@H](C)[C@H](NC(=O)[C@H](Cc1ccccc1)NC(=O)[C@H](CCC(=O)O)NC(=O)[C@H](CCCCN)NC(=O)[C@H](C)NC(=O)[C@H](C)NC(=O)[C@H](CCC(N)=O)NC(=O)CNC(=O)[C@H](CCC(=O)O)NC(=O)[C@H](CC(C)C)NC(=O)[C@H](Cc1ccc(O)cc1)NC(=O)[C@H](CO)NC(=O)[C@H](CO)NC(=O)[C@@H](NC(=O)[C@H](CC(=O)O)NC(=O)[C@H](CO)NC(=O)[C@@H](NC(=O)[C@H](Cc1ccccc1)NC(=O)[C@@H](NC(=O)CNC(=O)[C@H](CCC(=O)O)NC(=O)[C@H](C)NC(=O)[C@H](Cc1c[nH]cn1)NC(=O)CNC(=O)CNC(=O)[C@@H](NC(=O)[C@@H]1CCCN1C(=O)[C@@H](NC(=O)CN)[C@@H](C)CC)[C@@H](C)CC)[C@@H](C)O)[C@@H](C)O)C(C)C)C(=O)N[C@@H](C)C(=O)N[C@@H](Cc1c[nH]c2ccccc12)C(=O)N[C@@H](CC(C)C)C(=O)N[C@H](C(=O)N[C@@H](CCCCN)C(=O)NCC(=O)N[C@@H](CCCNC(=N)N)C(=O)NCC(=O)NCC(=O)N[C@@H](CCCCN)C(=O)NCC(=O)N[C@@H](CC(C)C)C(=O)N[C@H]1CSSC[C@@H](C(=O)N[C@@H](CCC(N)=O)C(=O)O)NC(=O)[C@H]([C@@H](C)CC)NC(=O)[C@@H]2CCCN2C(=O)[C@@H]2CCCN2C(=O)[C@H]([C@@H](C)CC)NC(=O)[C@H](CO)NC(=O)[C@H](C)NC(=O)[C@H]([C@@H](C)O)NC1=O)C(C)C [D-GLP-1-EC12]	–	–	–	–	–	–	–	100.0 ± 0.0	more stable in serum	86.9 ± 3.8	79.9 ± 6.2	73.9 ± 1.6	72.9 ± 8.2	53.5 ± 3.7	100.0 ± 0.0	93.4 ± 0.8	92.3 ± 3	91.7 ± 0.6	93.3 ± 0.2	95.1 ± 1.4	Remaining peak area (%)/elastase ([3]; isolated enzyme elastase, 1 h, 60 μM, pH 8): about 45%; remaining at 0.025 h, 60 μM ([3]; isolated enzyme elastase): 93.2 ± 2.4%; remaining at 0.05 h, 60 μM ([3]; isolated enzyme elastase): 88.9 ± 1.6%; remaining at 0.075 h, 60 μM ([3]; isolated enzyme elastase): 83.3 ± 1%; remaining at 0.1 h, 60 μM ([3]; isolated enzyme elastase): 82.7 ± 4.6%; remaining at 0.15 h, 60 μM ([3]; isolated enzyme elastase): 79.8 ± 2.2%; remaining at 0.25 h, 60 μM ([3]; isolated enzyme elastase): 72.5 ± 1.6%; remaining at 0.5 h, 60 μM ([3]; isolated enzyme elastase): 66.1 ± 2.1%; remaining at 1 h, 60 μM ([3]; isolated enzyme elastase): 49.5 ± 1.1%
